Measurements published in patent US20200071326A1, “TAM KINASE INHIBITORS” (Syros Pharmaceuticals, Inc., priority 2017, published 2020).
pKi: −log10 of the molar value. Structures can show the parent of a compound that is named as a salt.

Legend:
MERTK = molecular target: T1, MERTK (Homo sapiens, UniProt Q12866); test: IMAP fluorescence polarization kinase assay, MERTK; type: biochemical; settings: ATP 2.69 μM, enzyme 1.5 nM, 240 minutes, read-out: MERTK inhibitory constant (Ki)
T1 sequence (Q12866 21-999): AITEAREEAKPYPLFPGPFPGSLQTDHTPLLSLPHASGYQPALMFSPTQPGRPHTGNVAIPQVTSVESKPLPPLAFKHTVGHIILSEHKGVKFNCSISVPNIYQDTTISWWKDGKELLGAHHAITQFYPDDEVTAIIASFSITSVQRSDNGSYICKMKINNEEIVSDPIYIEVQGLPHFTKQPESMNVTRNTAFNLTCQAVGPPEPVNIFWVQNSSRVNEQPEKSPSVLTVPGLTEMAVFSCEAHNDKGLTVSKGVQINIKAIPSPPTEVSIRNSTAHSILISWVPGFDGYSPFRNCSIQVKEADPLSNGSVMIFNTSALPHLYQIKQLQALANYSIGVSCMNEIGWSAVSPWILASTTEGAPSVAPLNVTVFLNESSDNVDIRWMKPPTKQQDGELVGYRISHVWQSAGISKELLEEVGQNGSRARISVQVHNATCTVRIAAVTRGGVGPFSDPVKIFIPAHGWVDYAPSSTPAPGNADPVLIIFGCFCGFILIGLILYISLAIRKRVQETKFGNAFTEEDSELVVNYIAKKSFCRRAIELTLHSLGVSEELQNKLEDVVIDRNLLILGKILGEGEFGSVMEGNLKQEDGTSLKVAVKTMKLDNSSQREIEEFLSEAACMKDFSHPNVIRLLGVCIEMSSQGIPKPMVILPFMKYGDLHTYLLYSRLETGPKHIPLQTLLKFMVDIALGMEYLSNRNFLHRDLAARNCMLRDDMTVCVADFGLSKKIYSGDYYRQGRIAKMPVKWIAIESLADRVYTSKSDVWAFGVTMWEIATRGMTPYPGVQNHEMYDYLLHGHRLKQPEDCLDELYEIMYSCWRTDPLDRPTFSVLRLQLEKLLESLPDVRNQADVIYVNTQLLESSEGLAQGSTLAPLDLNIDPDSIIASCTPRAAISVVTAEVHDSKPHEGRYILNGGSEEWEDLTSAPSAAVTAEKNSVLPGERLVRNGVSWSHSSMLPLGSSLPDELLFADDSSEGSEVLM
Protocol: (§1) Activities of compounds against each of TYRO3, AXL, and MERTK as well as against FLT3, were determined using an immobilized metal ion affinity-based fluorescence polarization (“IMAP”) assay. A fluorescently-labeled substrate peptide was phosphorylated in the kinase reaction, after which a binding solution containing large trivalent metal-based nanoparticles was added and the phosphorylated substrate binds to these beads. This reduces the rotational speed of the substrate which is then detected using fluorescence polarization as a read-out.
(§2) The substrates used for each enzyme are as follows: AXL: 5F1-KKKKEEIYFFFG-NH2(SEQ ID NO:1); FLT3: 5F1-KKKKEEIYFFF-NH2 (SEQ ID NO:2); MERTK: 5F1-EFPIYDFLPAKKK-NH2 (SEQ ID NO:3); and TYRO3: 5F1-EFPIYDFLPAKKK-NH2 (SEQ ID NO:4).
(§3) This assay was performed in a 384-well, polystyrene microplate in a final volume of 8 μl. Substrate (final concentration=400 nM), ATP (final concentrations=24.7μM for AXL; 2.74 μM for FLT3; 2.69 μM for MERTK; and 54.0 μM for TYRO3), compounds and enzyme (final concentrations=2.5 nM for AXL, FLT3 and TYRO3; 1.5 nM for MERTK) were pipetted in this order into the appropriate reaction buffer (AXL: 50 mM HEPES, pH 8.0, 1 mM DTT, 10 mM MgCl2, 0.01% BRU35, 0.01% Triton X-100; FLT3: 50 mM HEPES, pH 8.0, 1 mM DTT, 10 mM MgCl2, 0.01% Triton X-100, 0.01% NP40; MERTK/TYRO3: 50 mM HEPES, pH 8.0, 1 mM DTT, 10 mM MgCl2, 0.01% Triton X-100) and incubated at room temperature for varying times (AXL, FLT3 and MERTK: 240 minutes; TYRO3: 60 minutes). IMAP binding solution was then dispensed, the plate incubated for 60 minutes at room temperature and the fluorescence polarization measured. Data were analyzed using XLfit.

TYRO3 = molecular target: T2, TYRO3 (Homo sapiens, UniProt Q06418); test: IMAP fluorescence polarization kinase assay, TYRO3; type: biochemical; settings: ATP 54.0 μM, enzyme 2.5 nM, 60 minutes, read-out: TYRO3 inhibitory constant (Ki)
T2 sequence (Q06418 41-890): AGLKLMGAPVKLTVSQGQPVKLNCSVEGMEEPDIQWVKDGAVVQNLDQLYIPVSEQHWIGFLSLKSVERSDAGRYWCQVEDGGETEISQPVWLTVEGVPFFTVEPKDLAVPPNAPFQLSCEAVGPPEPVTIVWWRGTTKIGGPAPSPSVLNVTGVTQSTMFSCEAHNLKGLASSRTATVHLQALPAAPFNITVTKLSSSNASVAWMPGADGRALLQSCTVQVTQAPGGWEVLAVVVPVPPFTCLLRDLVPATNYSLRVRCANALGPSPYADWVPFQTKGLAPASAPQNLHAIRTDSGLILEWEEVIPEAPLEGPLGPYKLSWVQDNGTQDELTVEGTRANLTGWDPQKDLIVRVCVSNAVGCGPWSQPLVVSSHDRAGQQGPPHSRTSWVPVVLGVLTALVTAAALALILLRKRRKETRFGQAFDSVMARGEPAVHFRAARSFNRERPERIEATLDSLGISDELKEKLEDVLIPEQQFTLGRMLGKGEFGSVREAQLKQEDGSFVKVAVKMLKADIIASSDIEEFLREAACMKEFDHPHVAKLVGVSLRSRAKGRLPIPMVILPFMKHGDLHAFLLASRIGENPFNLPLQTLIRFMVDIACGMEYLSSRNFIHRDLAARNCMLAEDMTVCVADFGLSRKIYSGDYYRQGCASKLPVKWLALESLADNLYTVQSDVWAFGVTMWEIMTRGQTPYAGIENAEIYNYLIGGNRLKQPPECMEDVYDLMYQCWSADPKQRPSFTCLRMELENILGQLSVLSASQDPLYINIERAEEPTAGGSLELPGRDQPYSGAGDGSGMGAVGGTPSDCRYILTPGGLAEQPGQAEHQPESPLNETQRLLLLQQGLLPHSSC
Protocol: as §1, §2, §3

Row | pKi (MERTK) | pKi (TYRO3) | Structure (SMILES)
1 | > 7.00 | > 7.00 | CCCc1cc2c(N[C@H]3CC[C@H](N)CC3)c(C(=O)Nc3ccc(F)cc3)cnc2[nH]1 [Compound 100, 4-(((1r,4r)-4-aminocyclohexyl)amino)-N-(4-fluorophenyl)-2-propyl-1H-pyrrolo [2,3-b]pyridine-5-carboxamide hydrochloride]
2 | 6.00 to 7.00 | 6.00 to 7.00 | CCCc1cc2c(N[C@H]3CC[C@H](O)CC3)c(C(=O)Nc3ccc(F)cc3)cnc2[nH]1 [Compound 101]
3 | > 7.00 | > 7.00 | CCCc1cc2c(N[C@H]3CC[C@H](O)CC3)c(C(=O)NCc3ccc(-n4ccnc4)cc3)cnc2[nH]1 [Compound 102]
4 | > 7.00 | 5.00 to 6.00 | Cc1cc2c(N[C@H]3CC[C@H](N)CC3)c(C(=O)Nc3ccc(F)cc3)cnc2[nH]1 [Compound 103]
5 | > 7.00 | > 7.00 | CCCc1cc2c(N[C@H]3CC[C@H](O)CC3)c(C(=O)NC3CCN(c4ncccn4)CC3)cnc2[nH]1 [Compound 104]
6 | > 7.00 | > 7.00 | CCCc1cc2c(N[C@H]3CC[C@H](O)CC3)c(-c3ccc(CN4CCOCC4)cn3)cnc2[nH]1 [Compound 105]
7 | 6.00 to 7.00 | 6.00 to 7.00 | CCCc1cc2c(N[C@H]3CC[C@H](O)CC3)c(-c3ccc(CN4CCOCC4)cc3)cnc2[nH]1 [Compound 106, (1r,4r)-4-((5-(4-(morpholinomethyl)phenyl)-2-propyl-1H-pyrrolo[2,3-b]pyridin-4-yl)amino)cyclohexanol hydrochloride]
8 | 6.00 to 7.00 | 6.00 to 7.00 | CCCc1cc2c(N[C@H]3CC[C@H](O)CC3)c(-c3cnn(CCN(C)C)c3)cnc2[nH]1 [Compound 107]
9 | > 7.00 | > 7.00 | CCCc1cc2c(N[C@H]3CC[C@H](N)CC3)c(-c3cnn(C)c3)cnc2[nH]1 [Compound 108, (1r,4r)-N1-(5-(1-methyl-1H-pyrazol-4-yl)-2-propyl-1H-pyrrolo[2,3-b]pyridine-4-yl)cyclohexane-1,4-diamine hydrochloride]
10 | > 7.00 | > 7.00 | CCCc1cc2c(N[C@H]3CC[C@H](O)CC3)c(-c3ccc(CNCC45C[C@H]6C[C@@H](C4)C[C@@H](C5)C6)cn3)cnc2[nH]1 [Compound 109]
11 | > 7.00 | > 7.00 | N[C@H]1CC[C@H](Nc2c(C(=O)NCc3ccc(-n4ccnc4)cc3)cnc3[nH]c(-c4ccccc4)cc23)CC1 [Compound 110]
12 | > 7.00 | > 7.00 | CCCc1cc2c(N[C@H]3CC[C@H](N)CC3)c(-c3cc(NC)ncn3)cnc2[nH]1 [Compound 111, (1r,4r)-N^1-(5-(6-(methylamino)pyrimidin-4-yl)-2-propyl-1H-pyrrolo[2,3-b]pyridine-4-yl)cyclohexane-1,4-diamine hydrochloride]
13 | > 7.00 | > 7.00 | CCCc1cc2c(N[C@H]3CC[C@H](N)CC3)c(-c3cc(NC(C)C)ncn3)cnc2[nH]1 [Compound 112]
14 | > 7.00 | > 7.00 | CCCc1cc2c(N[C@H]3CC[C@H](N)CC3)c(-c3ccccn3)cnc2[nH]1 [Compound 113]
15 | > 7.00 | > 7.00 | CCCc1cc2c(N[C@H]3CC[C@H](N)CC3)c(-c3ccc(F)cn3)cnc2[nH]1 [Compound 114]
16 | > 7.00 | > 7.00 | CCCc1cc2c(N[C@H]3CC[C@H](N)CC3)c(-c3ccc(S(=O)(=O)N4CCOCC4)cn3)cnc2[nH]1 [Compound 115]
17 | > 7.00 | > 7.00 | CCCc1cc2c(N[C@H]3CC[C@H](N)CC3)c(-c3cc(N)ncn3)cnc2[nH]1 [Compound 116]
18 | > 7.00 | > 7.00 | CCCc1cc2c(N[C@H]3CC[C@H](N)CC3)c(-c3nccs3)cnc2[nH]1 [Compound 117]
19 | > 7.00 | > 7.00 | CCCc1cc2c(N[C@H]3CC[C@H](N)CC3)c(-c3ccnc(N4CCCC4)n3)cnc2[nH]1 [Compound 118, (1r,4r)-N1-(2-propyl-5-(2-(pyrrolidin-1-yl)pyrimidin-4-yl)-1H-pyrrolo[2,3-b]pyridine-4-yl)cyclohexane-1,4-diamine hydrochloride]
20 | > 7.00 | > 7.00 | CCc1cc2c(N[C@H]3CC[C@H](N)CC3)c(C(=O)NCc3ccc(-n4ccnc4)cc3)cnc2[nH]1 [Compound 119, N-(4-(1H-imidazol-1-yl)benzyl)-4-(((1r,4r)-4-aminocyclohexyl)amino)-2-ethyl-1H-pyrrolo[2,3-b]pyridine-5-carboxamide]
21 | > 7.00 | > 7.00 | CCCc1cc2c(N[C@H]3CC[C@H](N)CC3)c(-c3ccc(N)cn3)cnc2[nH]1 [Compound 120]
22 | > 7.00 | > 7.00 | CCCc1cc2c(N[C@H]3CC[C@H](N)CC3)c(C(=O)NCc3ccc(-n4ccnc4)cc3)cnc2[nH]1 [Compound 121]
23 | > 7.00 | > 7.00 | CCCc1cc2c(N[C@H]3CC[C@H](N)CC3)c(-c3cc(OC)ncn3)cnc2[nH]1 [Compound 122]
24 | > 7.00 | > 7.00 | CCCc1cc2c(N[C@H]3CC[C@H](N)CC3)c(-c3ccnc(N)n3)cnc2[nH]1 [Compound 123]
25 | > 7.00 | > 7.00 | CCCc1cc2c(N[C@H]3CC[C@H](N)CC3)c(C(=O)NC3CCOCC3)cnc2[nH]1 [Compound 124]
26 | > 7.00 | > 7.00 | CCCc1cc2c(N[C@H]3CC[C@H](O)CC3)c(-c3ccc(CN4CCCC4)cn3)cnc2[nH]1 [Compound 125]
27 | > 7.00 | > 7.00 | N[C@H]1CC[C@H](Nc2c(C(=O)NCc3ccc(-n4ccnc4)cc3)cnc3[nH]c(C4CCCC4)cc23)CC1 [Compound 126]
28 | > 7.00 | > 7.00 | CCCc1cc2c(N[C@H]3CC[C@H](N)CC3)c(-c3ccc(C)nn3)cnc2[nH]1 [Compound 127]
